Measured values taken from patent US20230365639A1, “DEFENSIN FRAGMENT DERIVED LIPOPEPTIDES FOR TREATMENT OF DRUG-RESISTANT MICROORGANISMS” (priority 2020, published 2023).
Converted amounts (≈) assume the structure as drawn. “Also recorded” adds a separate entry of the source. Starred links: 1 amine or outer side, 2 acyl side, 3 side chain; linkers in the order of their positions; H or OH if unused. Non-standard residues stand in square brackets, D forms with d. Residues, ends and D or L forms follow the SMILES beside them. No end group written: not given here. ξ: configuration not given here. *: point of attachment. K(Pam) = CCCCCCCCCCCCCCCC(=O)NCCCC[C@H](N[*:1])C(=O)[*:2]; X1 = CCCCCCCCCCCCCCCC(=O)OCC(C*)OC(=O)CCCCCCCCCCCCCCC; Palmitoyl = CCCCCCCCCCCCCCCC(=O)*; AEEA = NCCOCCOCC(=O)O; ξC = NC(CS)C(=O)O

What was measured:
[1] = Cellular toxicity, WST-1 cell proliferation assay; assay type: cell-based
Experimental: (§1) Methods: Cellular toxicity was determined by Lactate dehydrogenase concentration and WST-1 cell proliferation assay as well as hemolysis assay.

[2] = tested on: red blood cell; test: Hemolysis assay; assay type: cell-based
Experimental: as §1

[3] = Cellular toxicity, lactate dehydrogenase (LDH) assay; assay type: cell-based
Experimental: as §1

[4] = tested on: C. albicans; test: Broth microdilution assay, antifungal activity; assay type: cell-based
Experimental: (§2) Methods: Broth microdilution assay. Candida was cultured in TSB over night at 37° C., centrifuged (1500 rpm, 10 min, RT) and washed twice with 10 mM sodium phosphate buffer containing 1% (w/v) TSB. Candida cells were counted and approximately 5×10^5 CFU/ml fungi were incubated with serial peptide concentrations (1.17-150 μM) in a final volume of 100 μl in 10 mM sodium phosphate buffer containing 1% (w/v) TSB for 2 hours at 37° C. After incubation, 100 μl of 6% TSB (w/v) was added and absorbance was measured at 600 nm (Tecan, Switzerland) and monitored for 18 hours. Afterwards, 100 μl per well was plated on YPD agar to determine the number of viable bacteria microbiologically.

[5] = tested on: C. tropicalis; test: Broth microdilution assay, antifungal activity; assay type: cell-based
Experimental: as §2

[6] = tested on: bacteria from the ESKAPE panel; assay type: cell-based
Experimental: Methods: Broth microdilution assay. Log-phase bacteria were collected by centrifugation (2500 rpm, 10 min, 4° C.), washed twice with 10 mM sodium phosphate buffer containing 1% (w/v) TSB and the optical density at 600 nm was adjusted to 0.1. Approximately 5×10^5 CFU/ml bacteria were incubated with serial peptide concentrations (1.17-150 μM) in a final volume of 100 μl in 10 mM sodium phosphate buffer containing 1% (w/v) TSB for 2 hours at 37° C. After incubation, 100 μl of 6% TSB (w/v) was added and absorbance was measured at 600 nm (Tecan, Switzerland) and monitored for 18 hours. Afterwards, 100 μl per well was plated on LB agar to determine the number of viable bacteria microbiologically. Bactericidal activity was expressed as the LC99.9, the lowest concentration that killed ≥99.9% of bacteria.

[7] = tested on: S. aureus NCTC8325; test: Membrane potential assay with DiOC2(3); assay type: cell-based; conditions: 30 min treatment
Experimental: S. aureus NCTC8325 was grown to log-phase in LB+0.1% glucose, harvested and the optical density at 600 nm (OD600) was adjusted to 0.5. Bacteria were incubated with 30 μM 3,3′-diethyloxacarbocyanine iodide (DiOC2(3), Invitrogen™) for 15 min in the dark and treated with serial peptide concentrations for 30 min. The protonophore carbonyl cyanide m-chlorophenyl hydrazone (CCCP, Sigma Aldrich) was used as a positive control and DMSO or 0.01% acetic acid as negative control. Fluorescence was measured at an excitation wavelength of 485 nm and two emission wavelengths, 530 nm (green) and 630 (nm) red, using a microplate reader (Tecan, Switzerland).

[8] = tested on: ypuA promoter; test: ypuA promoter luciferase reporter gene assay; assay type: cell-based, Bacillus subitilis 1S34
Experimental: A specific bacterial reporter strain with the genetic background of Bacillus subitilis 1S34, carrying the promoter of the ypuA gene, fused to the firefly luciferase reporter gene, was used to identify cell envelope-related damage caused by treatment with antimicrobial compounds. Bacteria were cultured to an OD600 of 0.9 in LB broth with 5 μg/ml erythromycin at 37° C. and diluted to an OD600 of 0.02. Serial peptide dilutions (0.15-150 μM) were prepared in a microtiter plate and incubated with the adjusted bacterial suspension at 37° C. for 1 hour. Subsequently, citrate buffer (0.1 M, pH 5) containing 2 mM luciferin (Iris Biotech, Germany) was added and luminescence was measured using a microplate reader (Tecan, Switzerland).

[9] = tested on: several pathogenic bacteria; test: Radial diffusion assay and MIC screening for antimicrobial activity; assay type: cell-based; conditions: radial diffusion assay and MIC determinations
Experimental: (§3) Methods: Log-phase bacteria were cultivated for up to 18 hours in TSB (TSB, Becton Dickinson, USA), washed and diluted to 4×10^6 CFU in 10 ml agar. Bacteria were incubated in 10 ml of 10 mM sodium phosphate, pH 7.4, containing 0.3 mg/ml of TSB powder and 1% (w/v) low EEO-agarose (AppliChem). Lipopeptides were pipetted into punched wells and diffused into the gel for 3 hours at 37° C. After that, a nutrient-rich gel with 6% TSB (w/v) and 1% agarose in 10 mM sodium phosphate buffer was poured on top of the first gel and incubated for up to 24 hours at 37° C. Then the diameter of inhibition zones was measured.
(§4) Clinical isolates of A. baumannii DSM30007, E. faecium DSM2918, K. pneumoniae DSM30104 and P. aeruginosa DSM1117 were provided by the Department for Laboratory Medicine at Robert-Bosch-Hospital Stuttgart, Germany. C. rodentium DSM16636 and E. coli DSM8695 were obtained from the Deutsche Sammlung von Mikroorganismen and Zellkultur GmbH Braunschweig, Germany. […]

[10] = tested on: S. Typhimurium; test: Radial diffusion assay; assay type: cell-based
Experimental: as §3, §4

[11] = Acute tolerability after oral administration; assay type: in vivo, C57BL/6N mice
From the text: Methods: C57BL/6N mice were generated and maintained (including breeding and housing) at the animal facilities of the Helmholtz Centre for Infection Research (HZI) under enhanced specific pathogen-free (SPF) conditions (Stehr et al., 2009). Animals used in the experiments were gender and age matched. Female and male mice with an age of 8-12 weeks were used. Sterilized food and water ad libitum were provided. Mice were kept under a strict 12-hour light cycle (lights on at 7:00 am and off at […]) and housed in groups of two to six mice per cage. All mice were euthanized by asphyxiation with CO2 and cervical dislocation. All animal experiments were performed in agreement with the local government of Lower Saxony, Germany (approved permission No. 33.19-42502-04-18/2499).
Age- and gender-matched mice received two doses of peptides (0, 125 μg or 250 μg) solved in 100 μl PBS orally per day. Bodyweight and appearance were recorded. The following day, mice were sacrificed and stomach, kidney, spleen, liver, small intestine, cecum and colon were removed for histological scoring. Around 1 ml of blood was taken from the heart to measure inflammatory markers including creatinine in the kidney and the enzyme levels of glutamate-oxalacetate-transaminase (GOT) in the liver.

Compound: CCCCCCCCCCCCCCCC(=O)NC(CSCC(COC(=O)CCCCCCCCCCCCCCC)OC(=O)CCCCCCCCCCCCCCC)C(=O)N[C@@H](CCCNC(=N)N)C(=O)NCC(=O)N[C@@H](CCCCN)C(=O)N[C@@H](C)C(=O)N[C@@H](CCCCN)C(=O)N[C@@H](CS)C(=O)N[C@@H](CS)C(=O)N[C@@H](CCCCN)C(=O)O (stereo partly drawn) [Pam-4] (Palmitoyl-[ξC](X1)RGKAKCCK-OH)
- metabolic activity (WST-1 assay) [1]: normal metabolic activity
- red blood cell disruption (hemolysis) [2]: minimal red blood cell disruption
- LDH activity (cytotoxicity) [3]: no LDH activity

Compound: Pam-Lys(Pam)-RGKAKCCK ({Palmitoyl-K(Pam)}-RGKAKCCK; cysteine pairing not given here) [Pam-5, octapeptide lipopeptide containing lysine as spacer]
- metabolic activity (WST-1 assay) [1]: normal metabolic activity
- antifungal activity against C. albicans [4]: modest activity; also recorded: some efficacy
- antifungal activity against C. tropicalis [5]: good activity; also recorded: highly effective
- bactericidal activity ([6]; broth microdilution, 1.17-150 μM peptide, 2 hours): moderate effects
- red blood cell disruption (hemolysis) [2]: minimal red blood cell disruption
- breakdown of the membrane potential [7]: most pronounced
- LDH activity (cytotoxicity) [3]: no LDH activity
- cell envelope damage (ypuA reporter) [8]: little cell envelope damage
- antimicrobial activity, inhibition of bacterial growth of the tested strains [9]: generally inactive

Compound: CCCCCCCCCCCCCCCC(=O)N[C@@H](CCCNC(=N)N)C(=O)NCC(=O)N[C@@H](CCCCN)C(=O)N[C@@H](C)C(=O)N[C@@H](CCCCN)C(=O)N[C@@H](CS)C(=O)N[C@@H](CS)C(=O)N[C@@H](CCCCN)C(=O)O [Pam-2] (Palmitoyl-RGKAKCCK-OH)
- metabolic activity (WST-1 assay) [1]: modest decrease
- red blood cell disruption (hemolysis) [2]: minimal red blood cell disruption
- LDH activity (cytotoxicity) [3]: some LDH activity

Compound: RGKAKCCK (Cleavage product of defensin) [octapeptide, the C-terminal eight amino acids of human beta-defensin 1, non-modified]
- inhibition of S. Typhimurium growth [10]: failed to inhibit

Compound: CCCCCCCCCCCCCCCC(=O)NCCOCCOCC(=O)N[C@@H](CCCNC(=N)N)C(=O)NCC(=O)N[C@@H](CCCCN)C(=O)N[C@@H](C)C(=O)N[C@@H](CCCCN)C(=O)N[C@@H](CS)C(=O)N[C@@H](CS)C(=O)N[C@@H](CCCCN)C(=O)O [Pam-3] ({Palmitoyl-AEEA}-RGKAKCCK-OH)
- histological examination of gastrointestinal, liver and kidney tissues ([11]; mouse, in vivo, po): no alterations
- serum level of creatinine ([11]; mouse, in vivo, po): no significant differences between the groups
- serum level of glutamic oxaloacetic transaminase (GOT) ([11]; mouse, in vivo, po): no significant differences between the groups
- acute toxicity (histological analysis and serum markers) ([11]; oral, mice, 24 hours after application, 125 or 250 μg doses): did not reveal any acute toxicity; also recorded: No danger signals
- metabolic activity (WST-1 assay) [1]: slight decrease
- MIC [6]: 9.38 µM (≈ 12 µg/mL)
- red blood cell disruption (hemolysis) [2]: modest red blood cell disruption
- LDH activity (cytotoxicity) [3]: little LDH activity
